Here are results for one molecule from ChEMBL document CHEMBL1141489, “A highly efficient route to enantiomerically pure l-N-Bz-Pmp(t-Bu)2-OH and incorporation into a peptide-based protein tyrosine phosphatase inhibitor” (Bioorg Med Chem Lett, 2008).

pIC50: −log10 of the molar value. Calls of active or inactive are those of the source. The calls are words filed in the database; no cut-off is given here. Square brackets hold non-standard residues; d marks the D form. Peptide text beside a SMILES is read from it. Pmp = N[C@@H](Cc1ccc(CP(=O)(O)O)cc1)C(=O)O

The target of test [1] is T1, Tyrosine-protein phosphatase non-receptor type 2 (Homo sapiens) (UniProt P17706).
T1 sequence (whole entry): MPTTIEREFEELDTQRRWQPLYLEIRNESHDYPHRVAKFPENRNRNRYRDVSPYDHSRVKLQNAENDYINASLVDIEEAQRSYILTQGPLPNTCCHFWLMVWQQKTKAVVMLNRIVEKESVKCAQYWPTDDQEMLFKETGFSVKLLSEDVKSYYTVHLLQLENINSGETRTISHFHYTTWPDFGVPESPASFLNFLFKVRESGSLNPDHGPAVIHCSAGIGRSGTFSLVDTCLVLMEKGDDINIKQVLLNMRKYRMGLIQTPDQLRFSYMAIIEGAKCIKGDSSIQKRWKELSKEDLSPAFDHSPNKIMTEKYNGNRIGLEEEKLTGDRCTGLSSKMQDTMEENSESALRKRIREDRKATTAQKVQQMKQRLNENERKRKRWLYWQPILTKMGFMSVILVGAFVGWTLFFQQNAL
Nature of the test: Inhibition of TCPTP upto 120 uM.

Test [2] deals with T2, Receptor-type tyrosine-protein phosphatase C (Homo sapiens, UniProt P08575).
T2 sequence (P08575 whole entry): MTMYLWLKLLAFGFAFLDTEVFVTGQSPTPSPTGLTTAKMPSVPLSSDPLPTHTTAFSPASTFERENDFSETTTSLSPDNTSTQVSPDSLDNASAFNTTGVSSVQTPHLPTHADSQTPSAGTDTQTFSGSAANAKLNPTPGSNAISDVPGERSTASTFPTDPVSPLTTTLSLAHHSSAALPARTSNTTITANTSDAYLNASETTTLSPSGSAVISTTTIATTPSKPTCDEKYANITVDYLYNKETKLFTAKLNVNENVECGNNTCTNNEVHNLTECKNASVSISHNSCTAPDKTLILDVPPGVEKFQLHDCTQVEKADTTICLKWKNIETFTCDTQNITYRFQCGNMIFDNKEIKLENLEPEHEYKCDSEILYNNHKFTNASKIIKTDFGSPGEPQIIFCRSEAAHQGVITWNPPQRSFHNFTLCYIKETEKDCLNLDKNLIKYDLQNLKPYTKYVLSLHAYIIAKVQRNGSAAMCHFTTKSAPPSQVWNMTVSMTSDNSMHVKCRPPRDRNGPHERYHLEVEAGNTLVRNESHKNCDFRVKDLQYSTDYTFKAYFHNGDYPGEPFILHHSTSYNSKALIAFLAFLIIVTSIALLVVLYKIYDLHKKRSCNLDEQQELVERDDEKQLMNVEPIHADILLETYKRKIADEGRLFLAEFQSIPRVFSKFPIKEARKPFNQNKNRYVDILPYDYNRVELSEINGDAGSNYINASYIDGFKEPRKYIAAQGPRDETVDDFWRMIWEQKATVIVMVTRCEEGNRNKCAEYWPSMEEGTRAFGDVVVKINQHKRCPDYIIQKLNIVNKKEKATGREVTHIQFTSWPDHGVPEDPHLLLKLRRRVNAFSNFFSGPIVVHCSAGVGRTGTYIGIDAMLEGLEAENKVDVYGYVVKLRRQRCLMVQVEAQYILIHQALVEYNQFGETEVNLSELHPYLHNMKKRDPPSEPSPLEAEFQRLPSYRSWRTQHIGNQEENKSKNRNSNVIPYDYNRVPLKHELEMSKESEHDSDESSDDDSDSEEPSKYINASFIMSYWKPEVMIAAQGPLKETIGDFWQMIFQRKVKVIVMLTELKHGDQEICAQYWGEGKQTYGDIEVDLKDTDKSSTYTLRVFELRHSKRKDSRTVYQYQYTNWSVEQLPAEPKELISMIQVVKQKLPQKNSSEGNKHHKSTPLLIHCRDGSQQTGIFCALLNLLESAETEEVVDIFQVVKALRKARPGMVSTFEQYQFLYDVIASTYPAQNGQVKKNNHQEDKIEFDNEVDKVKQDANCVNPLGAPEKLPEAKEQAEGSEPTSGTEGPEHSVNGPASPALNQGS
Nature of the test: Inhibition of CD45.

What is called pIC50 is −log10 of the IC50, conventionally taken in molar units. Low values mean a large IC50, high ones a small IC50. Take `CC(=O)N[C@H](C(=O)N[C@@H](CCC(=O)O)C(=O)NCC(=O)N[C@@H](CCC(N)=O)C(=O)N[C@@H](Cc1ccc(CP(=O)(O)O)cc1)C(=O)N[C@@H](CCC(N)=O)C(=O)N1CCC[C@H]1C(=O)N[C@@H](CCC(N)=O)C(=O)N1CCC[C@H]1C(N)=O)[C@@H](C)O` (Ac-TEGQ[Pmp]QPQP-NH2): in test [1], the outcome was inactive. For the same molecule, the pIC50 in test [2] was 4.00.
